Measured values as given in patent publication US10316017B2, “COT modulators and methods of use thereof” (Gilead Sciences, Inc., priority 2015, dated 2019).
Read-outs that look alike come from different tables or passages of the source.

Columns and labels:
[1] = biological target: T1, human Cot catalytic domain (30-397 amino acids) (Homo sapiens, UniProt P41279); assay: High Throughput Cot Biochemical Assay (KinEASE TR-FRET); settings: Cot KinEASE TR-FRET (HTRF) biochemical assay, 400 μM ATP; read-out: IC50 HTRF
T1 construct: Purified recombinant human Cot catalytic domain (30-397 amino acids) was purchased from Cama Biosciences; purchased Cama Biosciences (so in the source)
T1 sequence (P41279 30-397): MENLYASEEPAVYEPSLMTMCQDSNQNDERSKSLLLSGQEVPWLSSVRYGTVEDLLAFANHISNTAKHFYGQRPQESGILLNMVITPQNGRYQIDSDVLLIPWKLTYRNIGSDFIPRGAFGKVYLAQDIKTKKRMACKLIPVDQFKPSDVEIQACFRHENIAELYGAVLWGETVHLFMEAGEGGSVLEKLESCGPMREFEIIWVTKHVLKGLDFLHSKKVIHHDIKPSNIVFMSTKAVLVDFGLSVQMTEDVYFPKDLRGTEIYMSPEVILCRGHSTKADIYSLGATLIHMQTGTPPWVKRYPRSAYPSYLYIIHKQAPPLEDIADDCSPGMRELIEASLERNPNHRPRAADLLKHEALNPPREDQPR
Summary of the method: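 TR-FRET (KinEASE) read-out: Eu-labelled phospho-specific antibody binds XL665-tagged STK3 peptide (1 μM) phosphorylated by 5 nM human Cot kinase domain (residues 30-397). Reaction at 400 μM ATP, pH 7.0 MOPS buffer with 10 mM MgOAc, 1 mM DTT and 0.1% DMSO.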

[2] = system: TNFα production in LPS-stimulated human monocytes; assay: Cot Monocyte TNFα Cell Based Assay; settings: Homo sapiens, Monocyte, read-out: EC50 TNF
Summary of the method: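 TNFα release quantified by two-antibody TR-FRET, normalised to unstimulated (0%) and LPS-stimulated (100%) wells. Cells got a 1 h compound exposure at 37° C in 0.5% DMSO before 4 h challenge with 50 pg/ml LPS, at 5,000 cells/well.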

[3] = TNFα in LPS-stimulated human monocytes

IC50 [1] [nM]	EC50 [2, 3] [nM]	Compound	EC50 [2] [nM]
46	557	[2H][C@](Nc1cc(Cl)c2ncc(C#N)c(NC34CC5CC(CC(C5)C3)C4)c2c1)(c1ccc(F)cc1)c1cn(C2CC2)nn1 [Example 245, 4-(((3R,5R,7R)-adamantan-1-yl)amino)-8-chloro-6-(((S)-(1-cyclopropyl-1H-1,2,3-triazol-4-yl)(4-fluorophenyl)methyl-d)amino)quinoline-3-carbonitrile]	–
19	490	[2H][C@](Nc1cc(Cl)c2ncc(C#N)c(NC3C4CC5CC(C4)CC3C5)c2c1)(c1ccc(F)cc1)c1cn(C2CC2)nn1 (stereo partly drawn) [Example 246, 4-(((1S,3S,5S,7S)-adamantan-2-yl)amino)-8-chloro-6-(((S)-(1-cyclopropyl-1H-1,2,3-triazol-4-yl)(4-fluorophenyl)methyl-d)amino)quinoline-3-carbonitrile]	–
28	635	[2H][C@](Nc1cc(Cl)c2ncc(C#N)c(N[C@H](CC#N)C(C)(C)C)c2c1)(c1ccc(F)cc1)c1cn(C2CC2)nn1 [Example 247, 8-chloro-4-(((R)-1-cyano-3,3-dimethylbutan-2-yl)amino)-6-(((S)-(1-cyclopropyl-1H-1,2,3-triazol-4-yl)(4-fluorophenyl)methyl-d)amino)quinoline-3-carbonitrile]	–
3200	> 10000	[2H][C@](Nc1cc(Cl)c2ncc(C#N)c(N[C@@H](CCC#N)c3ccccc3)c2c1)(c1ccc(F)cc1)c1cn(C2CC2)nn1 [Example 248, 8-chloro-4-(((S)-3-cyano-1-phenylpropyl)amino)-6-(((S)-(1-cyclopropyl-1H-1,2,3-triazol-4-yl)(4-fluorophenyl)methyl-d)amino)quinoline-3-carbonitrile]	–
1	21	[2H][C@](Nc1cc(Cl)c2ncc(C#N)c(N[C@H](CCC#N)c3ccccc3)c2c1)(c1ccc(F)cc1)c1cn(C2CC2)nn1 [Example 249, 8-chloro-4-(((R)-3-cyano-1-phenylpropyl)amino)-6-(((S)-(1-cyclopropyl-1H-1,2,3-triazol-4-yl)(4-fluorophenyl)methyl-d)amino)quinoline-3-carbonitrile]	–
5	80	[2H][C@](Nc1cc(Cl)c2ncc(C#N)c(N[C@H](CC)c3ccccc3)c2c1)(c1cccc(C#N)c1)c1cn(C(C)(C)C)nn1 [Example 252, 6-(((S)-(1-(tert-butyl)-1H-1,2,3-triazol-4-yl)(3-cyanophenyl)methyl-d)amino)-8-chloro-4-(((R)-1-phenylpropyl)amino)quinoline-3-carbonitrile]	–
16	214	[2H][C@](Nc1cc(Cl)c2ncc(C#N)c(N[C@H](CC)c3ccccc3)c2c1)(c1ccc(F)cc1)c1cn(C(C)(C)C)nn1 [Example 253]	–
3	42	[2H][C@](Nc1cc(F)c2ncc(C#N)c(NC(CCC#N)c3ccccc3)c2c1)(c1cccc(C#N)c1)c1cn(C2CC2)nn1 (stereo partly drawn) [Example 254, 4-((3-cyano-1-phenylpropyl)amino)-6-(((S)-(3-cyanophenyl) (1-cyclopropyl-1H-1,2,3-triazo1-4-yl)methyl-d)amino)-8-fluoroquinoline-3-carbonitrile]	–
5	62	[2H][C@](Nc1cc(F)c2ncc(C#N)c(NC(CCC#N)c3ccccc3)c2c1)(c1ccc(F)cc1)c1cn(C2CC2)nn1 (stereo partly drawn) [Example 255, 4-((3-cyano-1-phenylpropyl)amino)-6-(((S)-(1-cyclopropyl-1H-1,2,3-triazol-4-yl)(4-fluorophenyl)methyl-d)amino)-8-fluoroquinoline-3-carbonitrile]	–
3	121	[2H][C@](Nc1cc(F)c2ncc(C#N)c(NCC(C)(C)C)c2c1)(c1cccc(C#N)c1)c1cn(C2CC2)nn1 [Example 256, (S)-6-(((3-cyanophenyl)(1-cyclopropyl-1H-1,2,3-triazol-4-yl)methyl-d)amino)-8-fluoro-4-(neopentylamino)quinoline-3-carbonitrile]	–
3	93	[2H][C@](Nc1cc(F)c2ncc(C#N)c(N[C@H](CC)c3ccccc3)c2c1)(c1cccc(C#N)c1)c1cn(C2CC2)nn1 [Example 257, 6-(((S)-(3-cyanophenyl)(1-cyclopropyl-1H-1,2,3-triazol-4-yl)methyl-d)amino)-8-fluoro-4-(((R)-1-phenylpropyl)amino)quinoline-3-carbonitrile]	–
44	651	CC[C@@H](Nc1c(C#N)cnc2c(Cl)cc(N[C@H](c3cn(C4CC4)nn3)c3cc(C#N)ccc3Cl)cc12)c1ccccc1 [Example 258, 8-chloro-6-(((S)-(2-chloro-5-cyanophenyl)(1-cyclopropyl-1H-1,2,3-triazol-4-yl)methyl)amino)-4-(((R)-1-phenylpropyl)amino)quinoline-3-carbonitrile]	–
5	87	[2H][C@](Nc1cc(Cl)c2ncc(C#N)c(N[C@H](CCO)c3ccccc3)c2c1)(c1cccc(C#N)c1)c1cn(C2CC2)nn1 [Example 259, 8-chloro-6-(((3-cyanophenyl)(1-cyclopropyl-1H-1,2,3-triazol-4-yl)methyl-d)amino)-4-(((R)-3-hydroxy-1-phenylpropyl)amino)quinoline-3-carbonitrile]	–
33	584	[2H][C@](Nc1cc(Cl)c2ncc(C#N)c(NCC3(C4CC4)CCC3)c2c1)(c1ccc(F)cc1)c1cn(C2CC2)nn1 [Example 260, (S)-8-chloro-6-(((1-cyclopropyl-1H-1,2,3-triazol-4-yl)(4-fluorophenyl)methyl-d)amino)-4-(((1-cyclopropylcyclobutyl)methyl)amino)quinoline-3-carbonitrile]	–
733	> 10000	[2H]C(Nc1cc(Cl)c2ncc(C#N)c(NCC(C)(C)C)c2c1)(c1ccc(F)cc1)c1nnnn1Cc1ccc(OC)cc1 (stereo not drawn) [Example 263, 8-chloro-6-(((4-fluorophenyl) (1-(4-methoxybenzyl)-1H-tetrazol-5-yl)methyl-d)amino)-4-(neopentylamino)quinoline-3-carbonitrile]	–
45	567	N#Cc1cnc2c(Cl)cc(N[C@@H](c3cccc(C(F)(F)F)c3)c3cn(C4CC4)nn3)cc2c1Nc1cnc(F)c(F)c1 [Example 264, (S)-8-chloro-6-(((1-cyclopropyl-1H-1,2,3-triazol-4-yl)(3-(trifluoromethyl)phenyl)methyl)amino)-4-((5,6-difluoropyridin-3-yl)amino)quinoline-3-carbonitrile]	–
12	471	N#Cc1cnc2c(Cl)cc(N[C@@H](c3cccc(F)c3)c3cn(C4CC4)nn3)cc2c1Nc1cnc(F)c(F)c1 [Example 265, (S)-8-chloro-6-(((1-cyclopropyl-1H-1,2,3-triazol-4-yl)(3-fluorophenyl)methyl)amino)-4-((5,6-difluoropyridin-3-yl)amino)quinoline-3-carbonitrile]	–

Compound	IC50 [1] [nM]	EC50 [2, 3] [nM]	EC50 [2] [nM]
[2H][C@](Nc1cc(Cl)c2ncc(C#N)c(NC[Si](C)(C)C)c2c1)(c1ccc(F)cc1)c1cn(C2CC2)nn1 [Example 262, (S)-8-chloro-6-(((1-cyclopropyl-1H-1,2,3-triazol-4-yl)(4-fluorophenyl)methyl-d)amino)-4-(((trimethylsilyl)methyl)amino) quinoline-3-carbonitrile]	10	–	259
